Converted amounts (≈) assume the structure as drawn.
Tested on: multidrug-resistant (MDR) strains of Mycobacterium tuberculosis
Assay: microbe, parasite or virus in culture
Type: cell-based
Conditions: 192 h, read-out: Antitubercular activity against Mycobacterium tuberculosis MDR (MIC)

Row | Structure (SMILES) | MIC
1 | COC(=O)c1c(C(=O)OC)c2ccc3cc(C)ccc3n2c1C(=O)c1ccc(F)cc1 [7-METHYL-QUIN1, Dimethyl 1-(4-fluorobenzoyl)-7-methylpyrrolo[1,2-α]quinoline-2,3-dicarboxylate] | 8 µg/mL (≈ 19.1 µM)
2 | COC(=O)c1c(C(=O)OC)c2ccc3cc(C)ccc3n2c1C(=O)c1ccc(Br)cc1 [7-METHYL-QUIN2, Dimethyl 1-(4-bromobenzoyl)-7-methylpyrrolo[1,2-α]quinoline-2,3-dicarboxylate] | 16 µg/mL (≈ 33.3 µM)
3 | CCOC(=O)c1cc(C(=O)c2ccc(Cl)cc2)n2c1ccc1cc(C)ccc12 [7-METHYL-QUIN3, Ethyl 1-(4-chlorobenzoyl)-7-methylpyrrolo[1,2-α]quinoline-3-carboxylate] | 4 µg/mL (≈ 10.2 µM)
4 | COC(=O)c1c(C(=O)OC)c2ccc3cc(C)ccc3n2c1C(=O)c1ccc(Cl)cc1 [7-METHYL-QUIN4, Dimethyl 1-(4-chlorobenzoyl)-7-methylpyrrolo[1,2-α]quinoline-2,3-dicarboxylate] | 4 µg/mL (≈ 9.18 µM)
